Experiments:
CT26 tumor cells = experiment: CT26 tumor growth / survival after vaccination (Example 1); format: in vivo; details: CT26 tumor-bearing Balb/c mice
[1] = tested on: CT26 murine colon tumor cells; experiment: Anti-tumor activity with or without poly-ICLC, CT26 murine tumor model (Example 13); format: in vivo; details: CT26 tumor-bearing BALB/c mice, n=10, day 25 post-tumor implantation, relative to PBS or poly-ICLC alone
Procedure: The goal of this experiment was to determine the requirement for the inclusion of the adjuvant poly-ICLC in a peptide vaccine containing ANCER™ selected neoantigens. For this experiment, female BALB/c mice were implanted subcutaneously with 3×10^5 CT26 murine colon tumor cells. Tumor growth was monitored by caliper measurement and mice were sacrificed 45 days after tumor implantation or when tumor volumes reached 2000 mm^3, whichever came first.
Four vaccine groups were tested (n=10 mice/group): • Group 1=PBS only • Group 2=PBS with 50 μg poly-ICLC • Group 3=20 ANCER™ selected (uncapped) peptides with 50 μg poly-ICLC • Group 4=20 ANCER™ selected (uncapped) peptides only
Peptide vaccines were comprised of 20 different ANCER™ selected peptides at a concentration of 5 μg/peptide for a total dose of 100 μg peptide per immunization. Mice were immunized subcutaneously in the opposite flank from tumor implantation twice per week for three weeks, starting at day 4 post-tumor implantation.

**Q.** How did the “tumor burden compared to Group 1 (mice immunized with PBS)” value (CT26 tumor cells; 50 μg sc days 5, 8, 12, 15, 19, 22, 26) turn out when poly-ICLC was run?
**A.** no reduction in tumor burden

**Q.** And the “mice surviving past day 28” value (CT26 tumor cells; N=10)?
**A.** Less than 50%

**Q.** What about the “mice surviving the 45 days of the experiment (in words)” value (CT26 tumor cells; N=10) of the same substance?
**A.** None

**Q.** What about the “mice reaching a tumor volume of at least 2,000 mm^3 (endpoint) by day 28” value (CT26 tumor cells; N=10, day 28, PBS group 70%) of the same substance?
**A.** 60%

**Q.** What about the “control of tumor growth” value [1] of the same substance?
**A.** no difference in tumor growth kinetics

Source: patent publication US20220362365A1, “IMPROVED COMPOSITIONS AND METHODS FOR SHARED NEO-EPITOPE VACCINES” (Epivax Therapeutics Inc., priority 2019, published 2022)
